Where two headings read alike, the source gives them in different places.
Experiments:
[1] = system: MDA-MB-231 cells; assay: MDA-MB-231 cell viability assay (Alamar Blue); assay type: cell-based, human; details: MDA-MB-231, 72 h
Experimental: (§1) Initially, the newly synthesized oxadiazoles were examined in cell viability studies in human breast cancer (MCF-7) cells using Alamar Blue assays.
(§2) MCF-7 and MDA-MB-231 (2000) cells were cultured in MEM or Leibovitz’s L-15 medium enriched with 2% FBS and maintained in a humidified atmosphere of 5% CO2 at 37 °C [44]. DMSO dissolved compounds were kept as a stock solution, and diluted with a cell culture medium to the desired concentration. Cancer cells (4 × 10^3) were grown overnight in 96-well plates, cultured, and treated with oxadiazoles or Olaparib at 0, 0.01, 0.1, 10, 100, and 1000 µM concentrations for 72 h. The inhibitory effect of the compounds was assessed using Alamar Blue reagent.
(§3) MCF-7 and MDA-MB-231 were treated with 5u, 5s and Olaparib (0, 0.01, 0.1, 1, 10, 100 µM) for 72 h, respectively. The viability of MCF-7 (A) and MDA-MB-231 cells (B) were analyzed using a microplate reader to measure the fluorescence of Alamar Blue reagent (excitation wavelength is between 530–560 nm and emission wavelength is 590 nm). The results are means of triplicate determinations.

[2] = system: MCF-7 cells; assay: Foci formation assay, MCF-7 cells; assay type: cell-based, human; details: MCF-7, crystal violet
Experimental: (§4) MCF-7 and MDA-MB-231 cells were plated in six-well plates in 2 mL media with or without compounds and cultured. When foci had formed, MCF-7 and MDA-MB-231 cells were washed with PBS and fixed with ice-cold methanol for 10 min at 4°C. Methanol was removed and crystal violet solution was used to stain foci at room temperature for 10 min. The resultant solution was removed; immobilized MCF-7 and MDA-MB-231 cells were rinsed with distilled water and dried at room temperature.
(§5) Figure 5 Compounds 5u, 5s, and Olaparib inhibited the foci formation of MCF-7 (left panel of A) and MDA-MB-231 (left panel of B) cells. Visualization of foci formed was achieved by use of Crystal Violet. Inhibition of foci formation was also quantified (right panels of both A,B) The data are expressed as mean ± SEM. * p ≤ 0.05; ** p ≤ 0.01; *** p ≤ 0.001.

[3] = system: MDA-MB-231 cells; assay: Foci formation assay, MDA-MB-231 cells; assay type: cell-based, human; details: MDA-MB-231, crystal violet
Experimental: as §4, §5

[4] = system: MDA-MB-231 cells; assay: 3D Matrigel growth, MDA-MB-231 cells; assay type: cell-based, human; details: MDA-MB-231, 4% Matrigel, 1 or 10 µM, Alamar Blue
Experimental: (§6) Cells were grown in a medium containing 4% Matrigel. Cells were treated with vehicles or compounds 5s, 5u, or Olaprib (1 or 10 µM), after colonies had formed. Compounds were added into the culture medium every 3 days for a total of 2 cycles. Alamar Blue assay was used for quantification of live cells. The data are expressed as mean ± SEM. * p ≤ 0.05; ** p ≤ 0.01; *** p ≤ 0.001.

[5] = system: MCF-7 cells; assay: Western blot, p-H2AX (Ser139) in MCF-7 cells; assay type: cell-based, human; details: MCF-7, 1 or 10 µM, 60 h
Experimental: (§7) Western blot analysis was performed to determine the levels of PARP1 cleavage and p-H2AX in MCF-7 and MDA-MB-231 cells using previously reported methods. Cells at 50–60% confluence were treated with compounds and incubated for 60 h in 2% FBS. MCF-7 and MDA-MB-231 cells were also treated with Olaparib, 5u, or 5s and the levels of cleaved PARP1 and p-H2A-X were determined using the respective antibodies.
(§8) Figure 4 The effect of compounds 5u, 5s, and Olaparib on PARP1 cleavage (upper panel of A,B) phosphorylation of H2A-X (Ser139) (lower panel of A,B), and CASPASE-3 activity (C,D) in MCF-7 and MDA-MB-231 cells. Cancer cells were treated with or without compounds 5u, 5s,and Olaparib (1 or 10 µM). The protein levels after treatment were observed by western blot analysis. GAPDH was used as input control. The data are expressed as mean ± SEM. ** p ≤ 0.01; *** p ≤ 0.001.

[6] = system: MDA-MB-231 cells; assay: Western blot, PARP1 cleavage in MDA-MB-231 cells; assay type: cell-based, human; details: MDA-MB-231, 1 or 10 µM, 60 h
Experimental: as §7, §8

[7] = system: MCF-7 cells; assay: Western blot, PARP1 cleavage in MCF-7 cells; assay type: cell-based, human; details: MCF-7, 1 or 10 µM, 60 h
Experimental: as §7, §8

[8] = system: MDA-MB-231 cells; assay: Western blot, p-H2AX (Ser139) in MDA-MB-231 cells; assay type: cell-based, human; details: MDA-MB-231, 1 or 10 µM, 60 h
Experimental: as §7, §8

[9] = target: T1, recombinant human PARP enzyme (PARP1) (Homo sapiens, UniProt P09874); assay: PARP activity, PARP/Apoptosis Universal Colorimetric Assay Kit; assay type: biochemical; details: n = 3
T1 construct: purchased R&D Systems Ltd., Abingdon, UK 4677-096-K
Experimental: PARP activity was measured using the PARP/Apoptosis Universal Colorimetric Assay Kit (4677-096-K, R&D Systems Ltd., Abingdon, UK). The enzyme inhibition assay uses the histone proteins immobilized 96-well plate, which measures the incorporation of ADP-ribose (biotin-tagged), followed by detection using streptavidin-conjugated horse-radish peroxidase, and finally the color development after the addition of substrate. Oxadiazoles were incubated with the recombinant human PARP enzyme prior to detection.

[10] = system: MCF-7 cells; assay: 3D Matrigel growth, MCF-7 cells; assay type: cell-based, human; details: MCF-7, 4% Matrigel, 1 or 10 µM, Alamar Blue
Experimental: as §6

[11] = system: MCF-7 cells; assay: MCF-7 cell viability assay (Alamar Blue); assay type: cell-based, human
Experimental: as §1, §2, §3

[12] = system: PARP1; details: read-out: cellular EC50; cited from earlier work
[13] = system: PARP1; details: read-out: IC50, PARP1 activity; cited from earlier work
[14] = target: autophagy activating kinase 1 (ULK1); set-up: method as in PMID 32967366; details: cited from earlier work
[15] = Homo sapiens, Alamar Blue, Figure 2B, read-out: Log IC50, MDA-MB-231 (converted)
[16] = Homo sapiens, Alamar Blue, read-out: IC50, cell viability of MDA-MB-231 cells
[17] = Alamar Blue, read-out: IC50, cell viability of MDA-MB-231 cells
[18] = Homo sapiens, MCF7, 72 h, MCF-7, 72 h, Alamar Blue, Figure 2A, read-out: Log IC50, MCF-7 (converted)
[19] = Homo sapiens, MCF7, 72 h, MCF-7, 72 h, Alamar Blue, read-out: IC50, cell viability of MCF-7 cells
[20] = MCF-7, 72 h, Alamar Blue, read-out: IC50, cell viability of MCF-7 cells

T1 sequence (P09874 whole entry): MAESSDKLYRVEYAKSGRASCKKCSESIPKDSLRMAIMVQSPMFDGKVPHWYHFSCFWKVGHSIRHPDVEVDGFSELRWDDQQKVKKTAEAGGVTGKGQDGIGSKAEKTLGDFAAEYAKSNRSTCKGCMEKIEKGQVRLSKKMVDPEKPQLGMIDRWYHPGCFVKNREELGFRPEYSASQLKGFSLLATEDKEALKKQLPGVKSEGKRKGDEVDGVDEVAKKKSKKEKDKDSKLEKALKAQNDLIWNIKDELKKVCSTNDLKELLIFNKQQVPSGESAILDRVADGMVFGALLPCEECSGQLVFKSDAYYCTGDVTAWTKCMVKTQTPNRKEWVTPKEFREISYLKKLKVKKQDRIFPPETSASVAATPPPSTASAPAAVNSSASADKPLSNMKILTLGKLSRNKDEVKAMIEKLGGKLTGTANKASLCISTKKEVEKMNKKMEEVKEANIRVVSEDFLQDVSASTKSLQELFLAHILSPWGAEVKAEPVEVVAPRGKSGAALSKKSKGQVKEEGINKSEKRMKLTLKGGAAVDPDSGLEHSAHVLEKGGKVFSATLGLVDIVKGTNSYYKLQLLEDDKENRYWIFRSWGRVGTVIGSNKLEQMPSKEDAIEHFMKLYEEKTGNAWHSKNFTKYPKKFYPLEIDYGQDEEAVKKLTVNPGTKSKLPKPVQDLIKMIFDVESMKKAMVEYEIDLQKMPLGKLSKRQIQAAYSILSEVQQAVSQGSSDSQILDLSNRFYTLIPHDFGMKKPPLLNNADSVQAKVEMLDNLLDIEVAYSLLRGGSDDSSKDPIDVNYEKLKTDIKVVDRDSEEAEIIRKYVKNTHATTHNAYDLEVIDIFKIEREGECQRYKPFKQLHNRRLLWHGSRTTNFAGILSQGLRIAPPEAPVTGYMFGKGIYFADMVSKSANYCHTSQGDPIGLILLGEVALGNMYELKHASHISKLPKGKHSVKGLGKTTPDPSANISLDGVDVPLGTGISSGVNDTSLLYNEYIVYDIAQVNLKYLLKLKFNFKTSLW

SMILES	IC50 [1, 15] [µM]	IC50 [1, 16] [µM]	IC50 [1, 17] [µM]	foci formation [2]	foci formation [3]	3D growth in Matrigel [4]	level of p-H2AX [5]	PARP1 cleavage [6]	PARP1 cleavage [7]	level of p-H2AX [8]	inhibition at 0.01 µM [9] [%]	inhibition at 0.1 µM [9] [%]	inhibition at 1 µM [9] [%]	inhibition at 10 µM [9] [%]	inhibition at 100 µM [9] [%]	3D growth in Matrigel [10]	IC50 [11, 18] [µM]	IC50 [11, 19] [µM]	IC50 [11, 20] [µM]	also measured
COc1ccc(Cc2nnc(-c3cccc(-c4cccc(C=O)c4)c3)o2)cc1 [compound 5u, 3′-(5-(4-Methoxybenzyl)-1,3,4-oxadiazol-2-yl)-[1,1′-biphenyl]-3-carbaldehyde]	29.5	29.3	29.3	decreased in a dose-dependent manner	decreased in a dose-dependent manner	roughly equivalent efficacy to Olaparib	equivalent increases in the level of p-H2AX	Equivalent levels of cleaved PARP1	Equivalent levels of cleaved PARP1	equivalent increases in the level of p-H2AX	4.82	6.84	45.4	54.2	82.2	roughly equivalent efficacy to Olaparib	1.45	1.45	1.4	–
NC(=O)c1cccc2[nH]c(-c3ccc(-c4nnco4)cc3)nc12 [compound 1]	–	–	–	–	–	–	–	–	–	–	–	–	–	–	–	–	–	–	–	EC50 [12]: 0.0037 µM; IC50 [13]: 0.001 µM
O=C(c1cc(Cc2n[nH]c(=O)c3ccccc23)ccc1F)N1CCN(C(=O)C2CC2)CC1 [Olaparib, reference compound]	–	–	–	decreased in a dose-dependent manner	decreased in a dose-dependent manner	inhibited the growth	equivalent increases in the level of p-H2AX	Equivalent levels of cleaved PARP1	Equivalent levels of cleaved PARP1	equivalent increases in the level of p-H2AX	–	–	–	–	–	inhibited the growth	–	–	–	IC50 ([1]; Homo sapiens, read-out: IC50, cell viability of MDA-MB-231 cells): 70.2 µM; IC50 ([1]; Homo sapiens, read-out: IC50, cell viability of MDA-MB-231 cells, MDA-MB-231, 72 h, Alamar Blue): 70.2 µM; IC50 ([1]; Homo sapiens, read-out: Log IC50, MDA-MB-231 (converted)): 70.8 µM; IC50 ([11]; Homo sapiens, MCF7, 72 h, read-out: Log IC50, MCF-7, MCF-7, 72 h, Alamar Blue (converted), Figure 2A): 3.31 µM; IC50 ([11]; read-out: IC50, cell viability of MCF-7 cells, MCF-7, 72 h, Alamar Blue): 3.2 µM
COc1ccc(Cc2nnc(-c3cccc(-c4ccnc(F)c4C)c3)o2)cc1OC [compound 5s, 2-(3,4-Dimethoxybenzyl)-5-(3-(2-fluoro-3-methylpyridin-4-yl)phenyl)-1,3,4-oxadiazole]	19.1	19.2	19.2	decreased in a dose-dependent manner	decreased in a dose-dependent manner	roughly equivalent efficacy to Olaparib	equivalent increases in the level of p-H2AX	Equivalent levels of cleaved PARP1	Equivalent levels of cleaved PARP1	equivalent increases in the level of p-H2AX	2.38	10.6	21.3	65	76.5	roughly equivalent efficacy to Olaparib	15.5	15.3	15.3	–
FC(F)(F)c1cnc(Nc2ccc3c(c2)OCCO3)nc1NC1CC1 [compound 2]	–	–	–	–	–	–	–	–	–	–	–	–	–	–	–	–	–	–	–	IC50 [14]: 0.014 µM
